Measurements from patent publication US20180055032A1, “ODORS FOR PSYLLID TRAPPING, REPELLING AND CONTROL” (The Regents of the University of California, priority 2011, published 2018).

Legend:
Type in all cases: cell-based, Diaphorina citri
Details in all cases: Table 1; odor diluted to 1%, 50 μL in cartridge
[1] = tested on: neuron 2A (rhinarial plate on flagellomere 2); test: single-sensillum electrophysiology, odor response of neuron 2A; note: key: 0, no response; +, >50 spikes/second; ++, >100 spikes/second; +++, >150 spikes/second
[2] = tested on: neuron 2B (rhinarial plate on flagellomere 2); test: single-sensillum electrophysiology, odor response of neuron 2B
[3] = tested on: neuron 2C (rhinarial plate on flagellomere 2); test: single-sensillum electrophysiology, odor response of neuron 2C
[4] = tested on: neuron 4A (rhinarial plate on flagellomere 4); test: single-sensillum electrophysiology, odor response of neuron 4A
[5] = tested on: neuron 4B (rhinarial plate on flagellomere 4)
[6] = tested on: neuron 4C (rhinarial plate on flagellomere 4); test: single-sensillum electrophysiology, odor response of neuron 4C
[7] = tested on: neuron 6A (rhinarial plate on flagellomere 6); test: single-sensillum electrophysiology, odor response of neuron 6A
[8] = tested on: neuron 6B (rhinarial plate on flagellomere 6); test: single-sensillum electrophysiology, odor response of neuron 6B
[9] = tested on: neuron 6C (rhinarial plate on flagellomere 6); test: single-sensillum electrophysiology, odor response of neuron 6C
[10] = tested on: neuron 7A (rhinarial plate on flagellomere 7); test: single-sensillum electrophysiology, odor response of neuron 7A; note: key: 0, no response; +, >50 spikes/second; ++, >100 spikes/second; +++, >150 spikes/second
[11] = tested on: neuron 7B (rhinarial plate on flagellomere 7)
[12] = tested on: neuron 7C (rhinarial plate on flagellomere 7); test: single-sensillum electrophysiology, odor response of neuron 7C

| Molecule | odor response (frequency of action potentials during stimulus minus baseline), 2A [1] | odor response (frequency of action potentials during stimulus minus baseline), 2B [2] | odor response (frequency of action potentials during stimulus minus baseline), 2C [3] | odor response (frequency of action potentials during stimulus minus baseline), 4A [4] | odor response (frequency of action potentials during stimulus minus baseline), 4B [5] | odor response (frequency of action potentials during stimulus minus baseline), 4C [6] | odor response (frequency of action potentials during stimulus minus baseline), 6A [7] | odor response (frequency of action potentials during stimulus minus baseline), 6B [8] | odor response (frequency of action potentials during stimulus minus baseline), 6C [9] | odor response (frequency of action potentials during stimulus minus baseline), 7A [10] | odor response (frequency of action potentials during stimulus minus baseline), 7B [11] | odor response (frequency of action potentials during stimulus minus baseline), 7C [12] |
| --- | --- | --- | --- | --- | --- | --- | --- | --- | --- | --- | --- | --- |
| CC1=CC=C(C(C)C)CC1 [α-terpinene] | 0 | 0 | 0 | 0 | ++ (++, >100 spikes/second) | 0 | 0 | ++ (++, >100 spikes/second) | 0 | 0 | 0 | 0 |
| C=C1CC/C=C(\C)CC[C@@H]2[C@@H]1CC2(C)C [β-caryophyllene] | 0 | ++ (++, >100 spikes/second) | 0 | 0 | 0 | 0 | 0 | 0 | 0 | 0 | + (+, >50 spikes/second) | 0 |
| CC1=CCC(C(C)C)=CC1 [γ-terpinene] | 0 | 0 | 0 | 0 | +++ (+++, >150 spikes/second) | 0 | 0 | ++ (++, >100 spikes/second) | 0 | 0 | 0 | 0 |
| CC1=CCC2C(C1)C2(C)C (stereo not drawn) [δ-3-carene] | 0 | 0 | 0 | 0 | ++ (++, >100 spikes/second) | 0 | 0 | ++ (++, >100 spikes/second) | 0 | 0 | 0 | 0 |
| (−)-limonene | 0 | 0 | 0 | 0 | + (+, >50 spikes/second) | 0 | 0 | + (+, >50 spikes/second) | 0 | 0 | 0 | 0 |
